Test results from PMC6986443, “T‐495, a novel low cooperative M1 receptor positive allosteric modulator, improves memory deficits associated with cholinergic dysfunction and is characterized by low gastrointestinal side effect risk” (Pharmacology Research & Perspectives, 2020).

Tests used:
[1] = tested on: CaMKIIα‐tTA/A53T α‐syn dTg mice; experiment: Y‐maze task; format: in vivo, mouse; details: 1 mg/kg p.o. (P = .12)
Description: The Y‐maze was fabricated from gray plastic and consisted of three arms (40 cm long, 12 cm high, 3 cm wide at the bottom, and 10 cm wide at the top) with an angle of 120°. Visual cues were placed outside each arm, and the apparatus was illuminated at 10 lux. […] An arm entry was defined as all four paws of the mouse being in the arm, and the sequence of arm entries was monitored with a video camera and counted manually. An alternation was defined as successive entries into the three arms on overlapping triplet sets.36 The percentage of alternation was calculated as the ratio of actual to possible alternations (total number of arm entries minus 2) multiplied by 100.

[2] = tested on: rats pretreated with scopolamine; design: method as in PMID 30089885; details: 0.1 mg/kg; cited from earlier work
SD rats = details: rats, donepezil 0.1 mg/kg p.o. alone; combination study; rats with effect/total
Description: Seven‐ or 8‐week‐old SD rats were individually placed into observation cages. After an acclimation period of at least 1 hour, a test compound was administered to the rats. […] Cholinergic side effects, including diarrhea, lacrimation, salivation, miosis, and fasciculation, were assessed blindly, as described previously,27 and convulsion was scored using a modified Racine scale,37 as follows: stage 0, normal; stage 1, immobility; stage 2, forelimb and/or tail extension and rigid posture; stage 3, repetitive movements, head nodding, and gnawing; stage 4, rearing and falling; stage 5, continuous rearing and falling; stage 6, severe tonic‐clonic seizure with loss of postural control; and stage 7, death in the first 2 hours.

rats = tested on: rats; design: method as in PMID 30089885; details: cited from earlier work
M1R [3] = tested on: M1R; design: method as in PMID 30089885; details: cited from earlier work
M1R [4] = tested on: M1R; design: method as in PMID 30089885; details: at concentrations required for procognitive efficacy; cited from earlier work

SMILES	reduced percentage of alternations [1]	scopolamine‐induced NDI reduction, retention trial [2]	Convulsion (SD rats)	Fasciculation (SD rats)	Lacrimation (SD rats)	Loose, mucous stool, or diarrhea (SD rats)	Myosis (SD rats)	Salivation (SD rats)	scopolamine‐induced cognitive impairment, combination with an AChEI (rats)	difference between doses improving cognitive function and doses inducing diarrhea (rats; rats)	α‐value (cooperativity) (M1R [3])	inhibition of the binding of scopolamine to M1R (M1R [4])
COc1cc2c(cc1OC)C(=O)C(CC1CCN(Cc3ccccc3)CC1)C2 (stereo not drawn) [donepezil, reference compound]	tended to reverse	subeffective	0/6	0/6	0/6	0/6	0/6	0/6				
Cc1c(Cc2ccc(-n3cccn3)cc2)cc2c(c1F)CN([C@H]1COCC[C@@H]1O)C2=O [TAK‐071]									synergistically improved	33 fold	199	did not inhibit
